ChEMBL document CHEMBL1130832, “5-Alkyl-2-[(methylthiomethyl)thio]-6-(benzyl)-pyrimidin-4-(1H)-ones as potent non-nucleoside reverse transcriptase inhibitors of S-DABO series” (Bioorg Med Chem Lett, 1998)

Assays:
[1] = Compound was evaluated for inhibition of p24 production in HIV infected peripheral blood mononuclear cells; assay type: functional; conditions: Homo sapiens
[2] = target: Human immunodeficiency virus type 1 reverse transcriptase (Human immunodeficiency virus 1, UniProt Q72547); experiment: Compound was evaluated for enzymatic inhibitory activity against recombinant HIV reverse transcriptase
[3] = Compound was evaluated for cytotoxic activity against peripheral blood mononuclear cells using microculture tetrazolium assay; assay type: functional; conditions: Homo sapiens

Structure (SMILES) | IC50 [1] [µM] | IC50 [2] [µM] | IC50 [3] [µM]
CSCSc1nc(O)c(C(C)C)c(Cc2cc(C)cc(C)c2)n1 | 0.01 | 4.8 | > 100
CSCSc1nc(O)c(C)c(Cc2ccccc2)n1 | 4.5 | 18.8 | > 100
CSCSc1nc(O)c(C(C)C)c(Cc2ccccc2)n1 | < 0.001 | 6.1 | > 100
CCc1c(O)nc(SCSC)nc1Cc1ccccc1 | 0.8 | 9.7 | > 100
Cc1cn([C@H]2C[C@H](N=[N+]=[N-])[C@@H](CO)O2)c(=O)[nH]c1=O [ZIDOVUDINE] | 0.004 | > 100 | 100
CCOCn1c(Cc2ccccc2)c(C(C)C)c(=O)[nH]c1=O [EMIVIRINE] | – | – | > 100
